Source: US7880007B2, “Bicyclic substituted phenyl piperidine modulators of muscarinic receptors” (Vertex Pharmaceuticals Incorporated, priority 2004, dated 2011)

Experiments:
Format in all cases: cell-based
M1 muscarinic receptor = target: T1, M1 muscarinic receptor (Homo sapiens, UniProt P11229); assay: Functional mobilization of intracellular calcium (FLIPR), M1-CHO cells; details: for M1 Activity: M1-CHO cells, calcium mobilization (FLIPR)
T1 construct: expressed in transfected cells; host or cells: CHO (M1-CHO)
T1 sequence (P11229 1-460): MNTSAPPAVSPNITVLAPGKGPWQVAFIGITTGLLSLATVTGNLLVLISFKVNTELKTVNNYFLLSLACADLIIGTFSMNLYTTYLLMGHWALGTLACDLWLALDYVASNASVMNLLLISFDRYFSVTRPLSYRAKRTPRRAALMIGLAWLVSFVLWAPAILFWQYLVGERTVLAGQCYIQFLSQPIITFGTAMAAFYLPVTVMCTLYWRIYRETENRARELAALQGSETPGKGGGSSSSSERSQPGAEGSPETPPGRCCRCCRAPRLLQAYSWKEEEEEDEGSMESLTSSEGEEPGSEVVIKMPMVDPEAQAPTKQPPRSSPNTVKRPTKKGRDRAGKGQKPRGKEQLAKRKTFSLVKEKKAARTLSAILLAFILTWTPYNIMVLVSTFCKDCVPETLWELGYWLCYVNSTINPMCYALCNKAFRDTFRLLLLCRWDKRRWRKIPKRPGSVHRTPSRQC
Procedure, shortened: (§1)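 FLIPR fluorescence (ex 488, em 540 nm) recorded 60 sec after compound addition to dye-loaded CHO cells. Agonist mode: compound alone. Antagonist mode: 15 min compound pre-incubation, then carbachol at EC80, or co-application. Efficacy expressed as % of maximal carbachol response.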

M2 muscarinic receptor = target: T2, M2 muscarinic receptor (Homo sapiens, UniProt P08172); assay: Functional mobilization of intracellular calcium (FLIPR), M2-CHO cells; details: for M2 Activity: M2-CHO cells, calcium mobilization (FLIPR)
T2 construct: expressed in transfected cells; host or cells: CHO (M2-CHO)
T2 sequence (P08172 1-466): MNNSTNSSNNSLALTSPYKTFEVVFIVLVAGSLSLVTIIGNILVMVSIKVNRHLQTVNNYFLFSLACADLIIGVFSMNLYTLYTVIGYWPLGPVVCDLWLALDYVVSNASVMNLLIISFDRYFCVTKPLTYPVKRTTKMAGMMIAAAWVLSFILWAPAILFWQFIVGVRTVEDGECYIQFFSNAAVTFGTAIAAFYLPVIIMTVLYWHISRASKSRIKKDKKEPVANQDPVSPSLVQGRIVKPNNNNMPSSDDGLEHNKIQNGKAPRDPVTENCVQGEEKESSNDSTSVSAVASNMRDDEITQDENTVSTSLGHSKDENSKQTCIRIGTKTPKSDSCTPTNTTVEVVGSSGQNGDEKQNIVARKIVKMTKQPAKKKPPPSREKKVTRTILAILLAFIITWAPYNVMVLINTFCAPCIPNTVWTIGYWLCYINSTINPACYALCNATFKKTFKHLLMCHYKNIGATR
Procedure, shortened: as §1

M3 muscarinic receptor = target: T3, M3 muscarinic receptor (Homo sapiens, UniProt P20309); assay: Functional mobilization of intracellular calcium (FLIPR), M3-CHO cells; details: for M3 Activity: M3-CHO cells, calcium mobilization (FLIPR)
T3 construct: expressed in transfected cells; host or cells: CHO (M3-CHO)
T3 sequence (P20309 whole entry): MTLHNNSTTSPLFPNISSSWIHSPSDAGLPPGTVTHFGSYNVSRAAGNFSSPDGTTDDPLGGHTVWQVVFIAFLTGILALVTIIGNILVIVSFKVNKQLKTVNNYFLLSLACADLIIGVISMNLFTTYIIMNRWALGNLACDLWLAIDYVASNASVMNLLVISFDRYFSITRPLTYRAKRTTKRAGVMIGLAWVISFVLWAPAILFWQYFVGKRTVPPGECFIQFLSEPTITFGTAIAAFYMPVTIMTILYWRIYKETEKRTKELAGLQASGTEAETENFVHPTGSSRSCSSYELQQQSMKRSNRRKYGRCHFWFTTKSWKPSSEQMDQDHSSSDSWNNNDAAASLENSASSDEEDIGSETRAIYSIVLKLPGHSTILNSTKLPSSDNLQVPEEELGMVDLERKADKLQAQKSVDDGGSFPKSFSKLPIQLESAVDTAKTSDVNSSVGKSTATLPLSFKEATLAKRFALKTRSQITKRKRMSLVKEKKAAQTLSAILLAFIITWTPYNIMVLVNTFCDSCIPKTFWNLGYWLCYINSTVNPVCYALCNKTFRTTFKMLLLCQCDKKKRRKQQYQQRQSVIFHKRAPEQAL
Method: Functional Mobilization of Intracellular Calcium to Determine Muscarinic Receptor Activity:
CHO cells expressing muscarinic receptors (M1 to M5) are grown as monolayers in tissue culture flasks at 37° C. in a humidified atmosphere containing 5% CO2 and passaged every 3-5 days. The growth media is Dulbecco's modified eagles medium (DMEM, Gibco Cat #12430-054), containing 25 mM Hepes and supplemented with Fetal Bovine Serum (Hyclone, cat #SH30071.03), 0.1 mM of MEM non-essential amino acids (GIBCO, Cat #11140-050), 1 mM MEM Sodium Pyruvate (GIBCO Cat #11360-070) and 100 units/ml of Penicillin G and 100 μg/ml of Streptomycin (GIBCO Cat #15140-122). The recombinant muscarinic receptor cell lines are grown under antibiotic pressure with media containing 25 μg/ml zeocin and 500 μg/ml G418 (M1-CHO), 4 μg/ml puromycin, 50 μg/ml zeocin and 2.5 μg/ml blasticidin (M2 and M4-CHO) or 50 μg/ml zeocin and 4 μg/ml puromycin (M3 and M5-CHO).
Cells are harvested at 80-90% confluence using Versene (GIBCO Cat #15040-066), collected by centrifugation and seeded 18-24 hrs prior to running the calcium assay at a density of 5,000-10,000 cells/well in […], clear-bottomed 384-well plates (BD Biocoat, poly-D-lysine, Cat #356663). The day of the experiment, the cells are washed with a plate washer (Bioteck Instruments, ELX 405) using bath 1 buffer (140-mM NaCl, 4.5-mM KCl, 2-mM CaCl2, 1-mM MgCl2, 10-mM Hepes-Na, 10-mM Glucose, pH 7.4, with NaOH) containing 1 mM Probenecid. Next, the calcium dye Fluo-3 (25 μl/well of Fluo-3 AM at 4 μM, Molecular Probes F-1241, in Bath 1 buffer containing 1 mM Probenecid) is added to the 25 μl of Bath 1 remaining in each well after the plate wash and the dye is loaded at 37° C. in the tissue culture incubator for 60-90 min. The fluorescent dye is removed using the plate washer with Bath 1 containing 1 mM Probenecid, leaving 25 μl/well of this solution after the wash. Alternatively, cells can be loaded with the calcium indicator from Molecular Devices (Calcium 3 Assay Reagents, Cat #R7181) adding 5 μl of a 5× solution dye in Bath 1 containing 1 mM Probenecid (10 ml per dye flask cat #R7182 to generate a solution 20×) to 20 μl of the same buffer. After loading for 60 min, the experiment can be run without having to remove the dye.
Compounds are prepared at a 2× fold concentration in a 96-well plate (round bottom, Costar Corning cat #3656), by reconstituting the pre-spotted compounds in bath 1 containing 1 mM probenecid. The final concentration DMSO is 0.5%, and the amount of DMSO is normalized across the assay plate. To determine an agonist action of the compounds on muscarinic receptors, the reconstituted compounds are added (25 μl compound/well) to the cell assay plate (containing 25 μl/well) using the multi-channel robotic system of the FLIPR 3 Instrument (Molecular Devices, Sunnyvale, Calif.). To determine a functional inhibitory action of the compounds on muscarinic receptors, the reconstituted compounds are added (25 μl compound/well) to the assay plate and pre-incubated for 15 min prior to adding 25 μl of Carbachol at 3× the EC80 for each muscarinic subtype. Alternatively, the compounds can be co-applied simultaneously with the agonist. In both assay modes, the fluorescence is recorded for 60 sec (excitation wavelength is […] and emission wavelength 540 nm) using the FLIPR 3 instrument.
The potency, efficacy and selectivity of the muscarinic compounds were evaluated by screening the compound activity across the whole family (M1 to M5 cells). Compounds were also screened for activity on other proteins such as other GPCRs and ion channels to determine selectivity on M4 receptors.
Examples of activities and efficacies of the muscarinic compounds of formulae (I, Ia, Ib, and II) on modulating M1, M2, M3 and M4 receptors are shown below in Table 3. […]

M4 muscarinic receptor = target: T4, M4 muscarinic receptor (Homo sapiens, UniProt P08173); assay: Functional mobilization of intracellular calcium (FLIPR), M4-CHO cells; details: for M4 Activity: M4-CHO cells, calcium mobilization (FLIPR)
T4 construct: expressed in transfected cells; host or cells: CHO (M4-CHO)
T4 sequence (P08173 1-479): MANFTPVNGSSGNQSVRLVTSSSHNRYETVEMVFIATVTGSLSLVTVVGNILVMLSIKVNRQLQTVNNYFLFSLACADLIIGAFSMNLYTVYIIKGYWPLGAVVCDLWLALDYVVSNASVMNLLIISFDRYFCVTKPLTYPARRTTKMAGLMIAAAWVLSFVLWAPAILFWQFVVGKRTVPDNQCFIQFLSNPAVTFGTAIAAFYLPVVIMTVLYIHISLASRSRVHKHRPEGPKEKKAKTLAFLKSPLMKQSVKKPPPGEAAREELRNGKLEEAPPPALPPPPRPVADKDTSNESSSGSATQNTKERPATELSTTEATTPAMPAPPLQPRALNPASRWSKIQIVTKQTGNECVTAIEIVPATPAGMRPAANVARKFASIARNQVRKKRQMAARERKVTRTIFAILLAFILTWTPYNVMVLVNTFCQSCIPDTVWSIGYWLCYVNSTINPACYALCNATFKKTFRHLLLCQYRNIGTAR
Procedure, shortened: as §1

[1] = 100% efficacy = maximum response obtained with the Carbachol control
[2] = 100% efficacy is the maximum response obtained with the Carbachol control

| Compound | Emax (M1 muscarinic receptor; [1]) [%] | M1 Activity (M1 muscarinic receptor) | Emax (M2 muscarinic receptor; [1]) [%] | M2 Activity (M2 muscarinic receptor) | Emax (M3 muscarinic receptor; [1]) [%] | M3 Activity (M3 muscarinic receptor) | Emax (M4 muscarinic receptor; [1]) [%] | M4 Activity (M4 muscarinic receptor) | Emax (M1 muscarinic receptor; [2]) [%] | Emax (M2 muscarinic receptor; [2]) [%] | Emax (M3 muscarinic receptor; [2]) [%] | Emax (M4 muscarinic receptor; [2]) [%] |
| --- | --- | --- | --- | --- | --- | --- | --- | --- | --- | --- | --- | --- |
| Fc1ccccc1-c1ccccc1C1CCN(C2CC3CC[C@H]2C3)CC1 (stereo in doubt) [Compound 10, 1-((1S,2R,4R)-bicyclo[2.2.1]heptan-2-yl)-4-(2′-fluorobiphenyl-2-yl)piperidine] | < 25 | + (activity was measured to be greater than 5.0 μM) | 25 to 100 | + (activity was measured to be greater than 5.0 μM) | < 25 | + (activity was measured to be greater than 5.0 μM) | 25 to 100 | ++ (activity was measured to be from 1.0 μM to 5.0 μM) |  |  |  |  |
| CC(=O)COc1ccccc1C1CCN(C2CC3CC[C@H]2C3)CC1 (stereo in doubt) [Compound 53, 1-(2-(1-((1S,2R,4R)-bicyclo[2.2.1]heptan-2-yl)piperidin-4-yl)phenoxy)propan-2-one] | 25 to 100 |  | 25 to 100 |  | < 25 |  | 25 to 100 |  |  |  |  |  |
| COc1ccc(C#Cc2ccccc2)cc1C1CCN(C2CC3CC[C@H]2C3)CC1 (stereo in doubt) [Compound 64, 1-((1S,2R,4R)-bicyclo[2.2.1]heptan-2-yl)-4-(2-methoxy-5-(phenyl-ethynyl)phenyl)piperidine] | 25 to 100 | + (activity was measured to be greater than 5.0 μM) | 25 to 100 | + (activity was measured to be greater than 5.0 μM) | < 25 | + (activity was measured to be greater than 5.0 μM) | 25 to 100 | ++ (activity was measured to be from 1.0 μM to 5.0 μM) |  |  |  |  |
| COc1ccc(C(=O)C(C)C)cc1C1CCN(C2CC3CC[C@H]2C3)CC1 (stereo in doubt) [Compound 222, 1-(3-(1-((1S,2R,4R)-bicyclo[2.2.1]heptan-2-yl)piperidin-4-yl)-4-methoxyphenyl)-2-methylpropan-1-one] | 25 to 100 |  | < 25 |  | < 25 |  | < 25 |  |  |  |  |  |
| Oc1ccccc1C1CCN(C2CC3CC[C@H]2C3)CC1 (stereo in doubt) [Compound 229, 2-(1-((1S,2R,4R)-bicyclo[2.2.1]heptan-2-yl)piperidin-4-yl)phenol] | 25 to 100 | ++ (activity was measured to be from 1.0 μM to 5.0 μM) | < 25 | + (activity was measured to be greater than 5.0 μM) | < 25 | + (activity was measured to be greater than 5.0 μM) | 25 to 100 | ++ (activity was measured to be from 1.0 μM to 5.0 μM) |  |  |  |  |
| COc1ccccc1C1CCN(C2CC3CC[C@H]2C3)CC1 (stereo in doubt) [Compound 397, 1-((1S,2R,4R)-bicyclo[2.2.1]heptan-2-yl)-4-(2-methoxyphenyl)piperidine] |  | ++ (activity was measured to be from 1.0 μM to 5.0 μM) |  | + (activity was measured to be greater than 5.0 μM) |  | + (activity was measured to be greater than 5.0 μM) |  | +++ (activity was measured to be less than 1.0 μM) | 25 to 100 | < 25 | < 25 | 25 to 100 |
| COc1ccccc1C1CCN(CC2CCCOC2)CC1 (stereo not shown) [Compound 2] | 25 to 100 | + (activity was measured to be greater than 5.0 μM) | < 25 | + (activity was measured to be greater than 5.0 μM) | < 25 | + (activity was measured to be greater than 5.0 μM) | 25 to 100 | ++ (activity was measured to be from 1.0 μM to 5.0 μM) |  |  |  |  |
| COc1ccc(C(=O)C2CC2)cc1C1CCN([C@H]2C[C@H]3CC[C@H]2C3)CC1 [Compound 3] | < 25 | + (activity was measured to be greater than 5.0 μM) | < 25 | + (activity was measured to be greater than 5.0 μM) | < 25 | + (activity was measured to be greater than 5.0 μM) | < 25 | + (activity was measured to be greater than 5.0 μM) |  |  |  |  |
| COc1cc(F)ccc1C1CCN([C@H]2C[C@H]3CC[C@H]2C3)CC1 [Compound 4] | 25 to 100 | + (activity was measured to be greater than 5.0 μM) | < 25 | + (activity was measured to be greater than 5.0 μM) | < 25 | + (activity was measured to be greater than 5.0 μM) | 25 to 100 | +++ (activity was measured to be less than 1.0 μM) |  |  |  |  |
